Like-named read-outs stand apart in the source and are kept apart here.
Key:
domestic flies [1] = test: Insecticidal activity, laboratory test in gauze boxes; assay type: in vivo; details: 0.25% solution in 5% aqueous glucose solution; death rate estimated in 48 - 72 hours
Experimental: An insecticidal composition based thereon, which was a 0.25% solution of this compound in a 5% aqueous glucose solution, was prepared. The laboratory and large-scale tests of the activity of an insecticidal composition of the invention was conducted on domestic flies. for laboratory tests into the gauze-made boxes (10x10 cm, 6 boxes), there were placed 6-7-day flies of both sexes by 50 individuals per each box. Into 5 boxes there were placed Petri dishes containing the insecticidal composition of the invention. The death rate of flies was estimated-in 48 - 72 hours. A Petri dish containing a 5% aqueous solution of glucose was placed into the control box. The insecticidal activity of the composition, according to the invention, was tested in comparison with a known insecticidal composition containing 0,0-dimethyl-/1-hydroay-2,2-trichloroethyl/phosphonate.

domestic flies [2] = test: Insecticidal activity, large-scale test in living and industrial premises; assay type: in vivo; details: 0.25% solution with 5% glucose solution, 2-3 dishes per 20 m2; 72 hours
Experimental: The large-scale tests of the activity of the insecticidal composition, according to the invention, was conducted on domestic flies in living and industrial premises. Petri dishes containing a 0.25% aqueous solution of the insecticide, according to the invention, added with a 5% glucose solution, were put at a rate of 2-3 dishes per 20 m2. The .activity of the composition of the invention was estimated by a direct count of dead insects in 72 hours or by using the adhesive tapes, counting the number of flies on the tape prior and after carrying out the test.

mice and rats = details: cited from earlier work
[3] = Solubility in water and organic solvents; assay type: physicochemical; details: qualitative, solvents named
pig ascarid ovigerms = test: Ovocidal activity on watch glasses, 2% solution; assay type: in vivo; details: concentration 2 %
Experimental: An ovocidal composition based on this compound was prepared in the form of a 2% solution thereof in distilled water. An ovocidal activity of the composition, according to the invention, was tested as follows.
A drop of a suspension containing at least 1.000 ascarid ovigerms was placed onto the watch glasses followed by adding thereto by 1 ml of the composition of the invention. Thereafter the watch glasses were put them into a humid chamber of a thermostat at a temperature of 24 - 26 °C. In every […] the watch glasses with ascarid ovigerms and with the composition of the invention were withdrawn from the thermostat and washed with distilled water for 2-3 times.
Then, the washed ascaride ovigerms were cultured for 30 days at a temperature of 24 - 26 °C. To determine the number of dead and viable ovigerms 200 ova were visualized under a microscope in every 3-5 days. Their death was determined by lack of the development of ovigerms up to the stage of larva and the.presence of destructive morphological changes for 30 days. An ovocidal activity of known composition based.on carbathion was determined by the same procedure. Control was carried out under the same conditions by adding a physiological saly solution. The death percentage of ova was estimated as a mean value of three results with the correction for death of ovigerms in the control and in comparison with the known compositions.

[4] = system: leaves of tomatoes and cucumbers; test: Phytotoxicity of the nematocidal composition; assay type: in vivo; details: 1% solution in water
tomato nematodes = test: Nematocidal activity, field test on 5 m2 plots; assay type: in vivo; details: 1% solution in water, read-out: Larva death, % Tests field
Experimental: (§1) The process was carried out in manner similar to that described in Example 3. […] The insecticidal activity was tested in a manner similar to that described in Example 3. A nematocidal composition based on the compound.-was prepared which was its 1% solution in water. A nematocidal effect of the composition was tested in laboratory conditions to the invasion larvae of a root-knot nematode. For testing it, one drop of a suspension containing 100 invasion larvae of root-knot nematodes was placed onto the cover glasses having cells. Thereafter, one drop of the nematocidal composition of the invention was put thereto. One drop of distilled water instead of the test composition was placed into the control cell..The glasses with test and control cells were put on a moisten ashless filter of a Petri dish, and 24 hrs later the killed nematodes were registered. The tests were repeated three times. The nematocidal activity of the composition, according to the invention was tested in comparison with the known nematocidal preparation containing 0,0-dimethyl-0-2,2/dichlorovinyl/phosphate. The field tests were carried out at the 5 m^2 plots affected by tomato nematodes. For testing it, the plots were treated with the nematocidal composition of the invention and the known nematocidal composition.

influenza A virus = test: microbe, parasite or virus in culture; parameters: species or system strain of influenza A1 virus; details: concentration 1 %
poliomyelitis virus = test: microbe, parasite or virus in culture; assay type: cell-based, poliomyelitis-II virus; details: concentration 1 %
hepatitis B virus = test: Virucidal activity, suspension method under protein loading, counter-current immunoelectrophoresis; details: concentration 1 %
[5] = system: invasion larvae of a root-knot nematode; test: Nematocidal activity, laboratory test; assay type: in vivo; details: Meloidogyne javanica; 1% solution in water; 24 hrs; read-out: Larva death, % Tests laboratory
Experimental: as §1

pig ascaride ovigerms = test: Ovocidal activity on watch glasses, 3% solution, laboratory test; assay type: in vivo; details: Sus scrofa, read-out: % Death of ovigerms Tests laboratory
Experimental: A drop of a suspension containing at least 1,000 ascarid ovigerms was placed onto watch glasses followed by adding one droplet of a 3% solution of the composition of the invention. Thereafter, they were put into a humid chamber of a thermostat at a temperature of 24-26 °C. In every 24 hours during 3 days the watch glasses with ascarid ova and the composition of the invention were withdrawn from the thermostat and washed with distilled water 2-3 times.
Then, the washed ascarid ovigerms were incubated for 30 days at a temperature of 24 - 26-°C. To determine the number of dead and viable ova, 200 ovigerms were observed by means of a microscope every 3 - 5 days. The death was determined by lack of ova development for 30 days up to the stage of a mobile larva and the presence of destructive morphological changes: shrinkage and deformation of embryos, rupture of shells. The known composition - carbathion was tested under the same conditions by adding a solvent. The percentage death of ova was estimated as a mean value of three results with a correction for ova death in the control and_in-comparison with the known composition.

helminthic ova = test: Ovocidal activity, large-scale disinfection of ambient objects; details: 3% aqueous solution; ambient objects (equipment, tableware, hands); read-out: % Death of ovigerms Tests large-scale
Experimental: Based on this compound, there was prepared the ovocidal composition in the form of 3% solution thereof. The ovocidal activity of the composition, according to the invention, was tested disinfection of ambient objects (equipment, tableware, hands). For this purpose, a 3% aqueous solution of the compound, according to the invention, was used for treating said objects. The. efficiency of the ovocidal action was determined by the number of helminthic ova in washings from the ambient objects before and after treating them with the ovocidal composition of the invention.

[6] = 24 h, read-out: Death of ascarid ovigerms (%) in 24 h
[7] = 48 h, read-out: Death of ascarid ovigerms (%) in 48 h

| Compound | Death of flies, % Tests laboratory (domestic flies [1]) | Death of flies, % Tests large-scale (domestic flies [2]) | solubility [3] | killing at 2 % (pig ascarid ovigerms; [6]) | killing at 2 % (pig ascarid ovigerms; [7]) | mortality at 1 % (tomato nematodes) | killing at 1 % [5] | killing at 3 % (pig ascaride ovigerms) | killing at 3 % (helminthic ova) | further results |
| --- | --- | --- | --- | --- | --- | --- | --- | --- | --- | --- |
| 0,0-dimethyl(1-hydroxy-2,2,2-trichloroethyl) phosphonate [Known insecticidal composition] | 85% | 83% | – | – | – | – | – | – | – | LDSO (mice and rats): 225 to 1200 mg/kg |
| O=C(N=P(OC(CCl)c1ccccc1)(OC(CCl)c1ccccc1)OC(CCl)c1ccccc1)c1ccccc1 (stereo not drawn) [Example 3, tris/2-chloro-1-phenylethoxy/phosphazobenzoyl] | 100% | 100% | soluble in water, alcohols, acetone, benzene, toluene | 68.1% | 93.4% | 100% | 100% | – | – | killing at 2 % (pig ascarid ovigerms; 72 h, read-out: Death of ascarid ovigerms (%) in 72 h): 100%; phytotoxic effects on the leaves of tomatoes and cucumbers [4]: no phytotoxic effects; killing at 1 % (influenza A virus; 0.25 h, 15 min, read-out: Death of viruses (%) under exposure, Influenza A, 15 min): 30%; killing at 1 % (influenza A virus; 0.5 h, 30 min, read-out: Death of viruses (%) under exposure, Influenza A, 30 min): 50%; killing at 1 % (influenza A virus; 1 h, 60 min, read-out: Death of viruses (%) under exposure, Influenza A, 60 min): 100%; killing at 1 % (poliomyelitis virus; 10 min, 10 min, read-out: Death of viruses (%) under exposure, Poliomyelitis, 10 min): 20%; killing at 1 % (poliomyelitis virus; 0.5 h, 30 min, read-out: Death of viruses (%) under exposure, Poliomyelitis, 30 min): 50%; killing at 1 % (poliomyelitis virus; 1 h, 60 min, read-out: Death of viruses (%) under exposure, Poliomyelitis, 60 min): 70%; killing at 1 % (hepatitis B virus; 0.25 h, 15 min, read-out: Death of viruses (%) under exposure, Hepatitis B, 15 min): 75%; killing at 1 % (hepatitis B virus; 0.5 h, 30 min, read-out: Death of viruses (%) under exposure, Hepatitis B, 30 min): 100%; killing at 1 % (hepatitis B virus; 1 h, 60 min, read-out: Death of viruses (%) under exposure, Hepatitis B, 60 min): 100% |
| O=C(N[C@H](COP(=NC(=O)C(Cl)(Cl)Cl)(OC[C@@H](NC(=O)C(Cl)Cl)[C@H](O)c1ccc([N+](=O)[O-])cc1)OC[C@@H](NC(=O)C(Cl)Cl)[C@H](O)c1ccc([N+](=O)[O-])cc1)[C@H](O)c1ccc([N+](=O)[O-])cc1)C(Cl)Cl [Example 7, d(-)--threo-3-para-nitrophenyl-2-dichloroacetamido-3-hydroxypro-poxyphosphazotrichloroacetyl] | – | – | soluble.in water, alcohols, acetone,--benzene, toluene | – | – | – | – | 100% | 98% | – |
| COP(=O)(OC)OC=C(Cl)Cl [Known nematocidal preparation, 0,0-dimethyl-0-/2,2-dichlorovinyl/phosphate] | – | – | – | – | – | 76% | 88.1% | – | – | – |
| CNC(=S)S [carbathion, sodium N-methyldithiocarbamate dihydrate] | – | – | – | 60% | 80% | – | – | 60% | 59% | – |
